Assay results reported in US12428370B2, “Haloallylamine dual amine oxidase inhibitors” (Syntara Limited, priority 2020, dated 2025).
Structures can show the parent of a compound that is named as a salt.

Key:
[1] = tested on: phospholipidosis; assay: Phospholipidosis cell-based fluorescence assay; settings: concentrations up to 100 μM
Procedure: Assessment of the Potential of Compound 1 to Induce Phospholipidosis in a Cell-Based Fluorescence Assay.
Compound 1 was tested in vitro for the potential to induce phospholipidosis according to the method outlined by Fujimura et. al. (Experimental and Toxicologic Pathology, 2007, 58, 375-382) at concentrations up to 100 μM.

[2] = molecular target: T1, Muscle and Heart Tissue MAO-B (Mus musculus, UniProt Q8BW75); assay: Mouse muscle and heart tissue MAO-B activity after oral administration; assay type: in vivo; settings: for MAO-B activity in heart and muscle tissue: C57BL/6J mice, single oral dose, FIG. 8
T1 construct: Skeletal muscle was pulverized in liquid nitrogen and then suspended in ice-cold HEPES buffered media; from tissue; host or cells: skeletal muscle and heart of C57BL/6J and mdx mice (mitochondrial extract)
T1 sequence (Q8BW75 1-520): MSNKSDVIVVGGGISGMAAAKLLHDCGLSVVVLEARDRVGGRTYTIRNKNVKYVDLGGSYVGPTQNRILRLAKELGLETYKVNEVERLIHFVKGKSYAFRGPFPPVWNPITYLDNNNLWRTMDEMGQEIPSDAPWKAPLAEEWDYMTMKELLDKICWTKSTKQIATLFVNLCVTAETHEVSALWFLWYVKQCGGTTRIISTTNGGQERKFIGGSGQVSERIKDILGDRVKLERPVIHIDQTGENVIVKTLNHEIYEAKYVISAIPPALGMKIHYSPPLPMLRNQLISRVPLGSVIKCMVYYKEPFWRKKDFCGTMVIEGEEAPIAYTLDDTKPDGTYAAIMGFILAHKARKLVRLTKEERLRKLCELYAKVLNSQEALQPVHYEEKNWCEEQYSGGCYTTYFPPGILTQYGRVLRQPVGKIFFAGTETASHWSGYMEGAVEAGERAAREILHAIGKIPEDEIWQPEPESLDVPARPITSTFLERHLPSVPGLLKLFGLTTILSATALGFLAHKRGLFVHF
Procedure: Mice were orally administered the compound under study and sacrificed at various time points and abdominal fat, muscle and heart tissue collected.
Skeletal muscle was pulverized in liquid nitrogen and then suspended in ice-cold HEPES buffered media (20 mM HEPES, 0.8% w/v free-fatty acid bovine serum albumin (BSA), 75 mM sucrose, 10 mM EDTA, 215 mM D-mannitol, pH 7.4). Homogenized and then centrifuged at 2,500 rpm for 10 minutes at 4° C. Supernatant transferred and centrifuged at 10,000 rpm for 8 minutes. Supernatant discarded and the resultant pellet containing the mitochondrial extract re-suspended in 0.1 M sodium phosphate buffer solution (1:3 ratio).
Heart muscle was washed with PBS solution three times over ice. Homogenate and extract was then prepared as described for the skeletal muscle.
MAO-B activity was determined by using a specific MAO-A inhibitor (e.g. clorgyline) and an SSAO/VAP-1 inhibitor (e.g. semicarbazide) to establish the high signal. Low signal was established as for the adipose tissue assay (EXAMPLE 13).
Activity of the treated samples was analyzed using the fluorometric method described in EXAMPLE 9 for SSAO/VAP-1 activity, EXAMPLE 10 for MAO-B and EXAMPLE 11 for MAO-A activity (FIG. 8 and FIG. 9).

[3] = molecular target: T2, Rat Brain Tissue MAO-B (Rattus norvegicus, UniProt P19643); assay: Rat brain tissue MAO-B activity after oral administration; assay type: in vivo, Sprague Dawley rats; settings: single oral dose 0.6 mg/kg, Sprague Dawley rat brain tissue, FIG. 3
T2 construct: Brain tissue was homogenized in ice-cold Tris buffer; from tissue; host or cells: brain of Sprague Dawley rats (mitochondrial extract)
T2 sequence (P19643 1-520): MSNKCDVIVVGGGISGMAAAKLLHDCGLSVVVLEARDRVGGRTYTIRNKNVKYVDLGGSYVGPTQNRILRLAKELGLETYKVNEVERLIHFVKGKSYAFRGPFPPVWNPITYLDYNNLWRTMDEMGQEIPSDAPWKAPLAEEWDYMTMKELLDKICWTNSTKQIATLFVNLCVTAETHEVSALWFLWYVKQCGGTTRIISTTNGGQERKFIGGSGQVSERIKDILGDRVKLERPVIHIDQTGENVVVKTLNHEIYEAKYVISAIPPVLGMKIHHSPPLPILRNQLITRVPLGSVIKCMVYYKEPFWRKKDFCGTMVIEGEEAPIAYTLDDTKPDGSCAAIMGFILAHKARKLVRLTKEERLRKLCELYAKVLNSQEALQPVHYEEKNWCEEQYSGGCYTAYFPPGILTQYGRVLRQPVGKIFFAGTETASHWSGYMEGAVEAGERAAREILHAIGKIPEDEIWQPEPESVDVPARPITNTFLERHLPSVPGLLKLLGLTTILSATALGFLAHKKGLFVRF
Procedure: Sprague Dawley rats were orally administered the compound under study and sacrificed at various time points and gonadal fat and brain tissue collected.
Brain tissue was homogenized in ice-cold Tris buffer (10 mM Tris·HCl, 0.5 mM EDTA, sucrose 250 mM, pH 7.4). Homogenate was then centrifuged at 4,000 rpm for 3 minutes at 4° C. The resultant supernatant was transferred and centrifuged again at 4,000 rpm for 3 minutes at 4° C. Process repeated one last time, this time at 10,000 rpm for 8 minutes. Supernatant discarded and the resultant pellet containing the mitochondrial extract re-suspended in 0.1 M sodium phosphate buffer solution (1:3 ratio). MAO-B activity was determined by using a specific MAO-A inhibitor (e.g. clorgyline) and a SSAO/VAP-1 inhibitor (e.g. semicarbazide) to establish the high signal. Low signal was established as for the adipose tissue assay.
Activity of the treated samples was analyzed using the fluorometric method described in EXAMPLE 9 for SSAO/VAP-1 activity and EXAMPLE 10 for MAO-B.

[4] = tested on: Hooded Wistar rat model of dopaminergic neurodegeneration; assay: Intranigral LPS-induced neuroinflammatory model, dopaminergic neuron counts; assay type: in vivo, Hooded Wistar male rats; settings: unilateral LPS, 2 mg/kg i.p. daily for 2 weeks, t-test p<0.05, FIG. 5
Procedure: Hooded Wistar male rats weighing between 300-400 g were obtained from Adelaide Laboratory Animal Services.
Unilateral infusions: Rats receiving a unilateral injection of 2 μL of 1.5 mg/mL solution of LPS (O55:B5, Sigma) in the substantia nigra were anaesthetized with isofluorane and positioned in a stereotaxic frame. For all rats, holes were drilled into the skull above the appropriate targeted structures according to the following coordinates: −5.3 mm posterior; ±2.0 mm lateral; −8.0 mm ventral to bregma.
Immunohistochemical procedures: two weeks after the lesion, the rats were transcardially perfused with PBS followed by PFA 4%. Brains were post-fixed in PFA 4%, and coronal sections of 30 μm containing the substantia nigra were collected and washed 3×0.01 M phosphate-buffered saline at pH 7.4. (PBS) for 10 minutes. Dopaminergic neurons were stained with anti-tyrosine hydroxylase (TH) antibody 1:10000 and visualized using nickel-enhanced 3,3′-diaminobenzidine (DAB) and counted manually.

SMILES | effect on cell viability [1] | effect on the cellular phenotype (phospholipidosis) [1] | MAO-B activity in heart and muscle tissue ([2]; 24-hour time point) | MAO-B activity in heart and muscle tissue ([2]; various doses, 4 hours after administration) | muscle MAO-B activity ([2]; mdx mice (C57BL/10ScSn-Dmdmdx/J), oral, FIG. 10) | duration of inhibition of MAO-B enzyme activity [3] | loss of dopaminergic neurons (TH-positive) in substantia nigra [4]
N#Cc1ccc(OC/C(=C/F)CN)cc1 [Compound 1, (E)-4-((2-(aminomethyl)-3-fluoroallyl)oxy) benzonitrile] | no effect | no effect | inhibition of the enzyme activity is still evident | dose-related reduction | completely inhibits | – | –
NC/C(=C\F)C1Cc2ccccc2O1 (single isomer, unassigned; (-)) [PXS-5131, (−)-(E)-2-(2,3-Dihydrobenzofuran-2-Yl)-3-Fluoroprop-2-En-1-Amine Hydrochloride] | – | – | – | – | – | greater than 24 hours | significant protection from loss
